Source: ChEMBL document CHEMBL1201862, “PubChem BioAssay data set” (2004)
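1) Cells in 96-well plates. 2) Compound, 48 h, 5 concentrations. 3) Linear interpolation between surrounding doses. 4) Unreached endpoint = highest concentration. Here, GI50 denotes the concentration required for 50% inhibition of growth.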 The source made the active and inactive calls. No stated cut-off is given here; in the data, active = GI50 up to about 1.1 µM and inactive = higher.

Assays:
Test in all cases: NCI anticancer screen, dose series, 48 h
[1] = test system: 786-0
[2] = test system: A498
[3] = test system: A549
[4] = test system: ACHN
[5] = test system: CAKI-1
[6] = test system: CCRF-CEM
[7] = test system: COLO 205
[8] = test system: DU-145
[9] = test system: EKVX
[10] = test system: HCC 2998
[11] = test system: HCT-116
[12] = test system: HCT-15
[13] = test system: HL-60
[14] = test system: HOP-62
[15] = test system: HOP-92
[16] = test system: HT-29
[17] = test system: Hs-578T
[18] = test system: IGROV-1
[19] = test system: KM12
[20] = test system: LOX IMVI
[21] = test system: M14
[22] = test system: MCF7
[23] = test system: MDA-MB-231
[24] = test system: MDA-MB-435
[25] = test system: MDA-N
[26] = test system: MOLT-4
[27] = test system: Malme-3M
[28] = test system: NCI-H226
[29] = test system: NCI-H23
[30] = test system: NCI-H522
[31] = test system: NCI/ADR-RES
[32] = test system: OVCAR-3
[33] = test system: OVCAR-4
[34] = test system: OVCAR-5
[35] = test system: OVCAR-8
[36] = test system: PC-3
[37] = test system: RPMI-8226
[38] = test system: RXF 393
[39] = test system: SF-268
[40] = test system: SF-295
[41] = test system: SF-539
[42] = test system: SK-MEL-28
[43] = test system: SK-MEL-2
[44] = test system: SK-MEL-5
[45] = test system: SK-OV-3
[46] = test system: SN12C
[47] = test system: SNB-19
[48] = test system: SNB-75
[49] = test system: SW-620
[50] = test system: T47D
[51] = test system: TK-10
[52] = test system: U-251
[53] = test system: UACC-257
[54] = test system: UACC-62
[55] = test system: UO-31

SMILES: CSc1nc(-c2ccccc2)nc(C(C#N)C#N)n1
- GI50 [1]: > 100 µM (inactive)
- GI50 [2]: > 100 µM (inactive)
- GI50 [3]: > 100 µM (inactive)
- GI50 [4]: > 100 µM (inactive)
- GI50 [5]: > 100 µM (inactive)
- GI50 [6]: > 100 µM (inactive)
- GI50 [7]: > 100 µM (inactive)
- GI50 [8]: > 100 µM (inactive)
- GI50 [9]: > 100 µM (inactive)
- GI50 [10]: > 100 µM (inactive)
- GI50 [11]: > 100 µM (inactive)
- GI50 [12]: > 100 µM
- GI50 [13]: > 100 µM (inactive)
- GI50 [14]: > 100 µM (inactive)
- GI50 [15]: > 100 µM (inactive)
- GI50 [16]: > 100 µM (inactive)
- GI50 [17]: > 100 µM (inactive)
- GI50 [18]: > 100 µM (inactive)
- GI50 [19]: > 100 µM (inactive)
- GI50 [20]: > 100 µM (inactive)
- GI50 [21]: > 100 µM (inactive)
- GI50 [22]: > 100 µM (inactive)
- GI50 [23]: > 100 µM (inactive)
- GI50 [24]: > 100 µM (inactive)
- GI50 [25]: > 100 µM (inactive)
- GI50 [26]: > 100 µM (inactive)
- GI50 [27]: > 100 µM (inactive)
- GI50 [28]: > 100 µM (inactive)
- GI50 [29]: > 100 µM (inactive)
- GI50 [30]: > 100 µM (inactive)
- GI50 [31]: > 100 µM (inactive)
- GI50 [32]: > 100 µM (inactive)
- GI50 [33]: > 100 µM (inactive)
- GI50 [34]: > 100 µM (inactive)
- GI50 [35]: > 100 µM (inactive)
- GI50 [36]: > 100 µM (inactive)
- GI50 [37]: > 100 µM (inactive)
- GI50 [38]: > 100 µM (inactive)
- GI50 [39]: > 100 µM (inactive)
- GI50 [40]: > 100 µM (inactive)
- GI50 [41]: > 100 µM (inactive)
- GI50 [42]: > 100 µM (inactive)
- GI50 [43]: > 100 µM (inactive)
- GI50 [44]: > 100 µM (inactive)
- GI50 [45]: > 100 µM (inactive)
- GI50 [46]: > 100 µM (inactive)
- GI50 [47]: > 100 µM (inactive)
- GI50 [48]: > 100 µM (inactive)
- GI50 [49]: > 100 µM (inactive)
- GI50 [50]: > 100 µM (inactive)
- GI50 [51]: > 100 µM (inactive)
- GI50 [52]: > 100 µM (inactive)
- GI50 [53]: > 100 µM (inactive)
- GI50 [54]: > 100 µM (inactive)
- GI50 [55]: 61.2 µM (inactive)
